Laboratory results published in ChEMBL document CHEMBL1133765, “QSAR model for drug human oral bioavailability” (J Med Chem, 2000).

Columns and labels:
[1] = octanol/water
[2] = clinical; settings: human, in vivo, po
[3] = physchem
[4] = physchem; settings: octanol/water, pH 6.5
[5] = physchem; settings: octanol/water
[6] = octanol/water; remark: listed apart in the source

Compound: CCCNC1CCc2nc(N)sc2C1 (stereo not drawn)
- delta logD [1]: -0.9
- bioavailability ([2]; F): ≥ 80%
- pKa [3]: 11
- logD [4]: -2.9

Compound: NC(=O)CCCCc1ccccc1
- delta logD [1]: 0
- bioavailability ([2]; F): ≥ 80%
- logD [4]: 0.13

Compound: O=[N+]([O-])C1O[C@H]2[C@H](OC[C@@H]2O)[C@@H]1O (stereo partly drawn)
- delta logD [1]: 0
- bioavailability ([2]; F): ≥ 80%
- logD [4]: -0.4

Compound: O=[N+]([O-])C1O[C@H]2[C@H](OC[C@H]2O)[C@H]1O (stereo partly drawn)
- delta logD [1]: 0
- bioavailability ([2]; F): ≥ 80%
- logD [4]: -0.15

Compound: CCO [ALCOHOL]
- bioavailability ([2]; F): > 80%

Compound: Oc1ncnc2[nH]ncc12 [ALLOPURINOL]
- delta logD [1]: 0
- bioavailability [2]: ≥ 80%
- logD [4]: -0.55

Compound: C=CCc1ccccc1OCC(O)CNC(C)C (stereo not drawn) [ALPRENOLOL]
- delta logD [1]: -0.89
- bioavailability ([2]; F): ≤ 20%
- logD [4]: 0.4

Compound: CCC1(CCC(C)C)C(=O)NC(=O)NC1=O [AMOBARBITAL]
- delta logD [1]: 0.13
- bioavailability [2]: ≥ 80%
- logD [4]: 2.05

Compound: CC(C)NCC(O)COc1ccc(COCCOC(C)C)cc1 (stereo not drawn) [BISOPROLOL]
- delta logD [1]: -0.89
- pKa [3]: 9.2
- logD [4]: -0.83

Compound: CCCCNc1cc(C(=O)O)cc(S(N)(=O)=O)c1Oc1ccccc1 [BUMETANIDE]
- delta logD [1]: 0.9
- bioavailability ([2]; F): ≥ 80%
- logD [4]: -1.84

Compound: NC(=O)N1c2ccccc2C=Cc2ccccc21 [CARBAMAZEPINE]
- delta logD [1]: 0
- bioavailability ([2]; F): ≥ 80%

Compound: CC(C)(C)NCC(O)COc1cccc2c1CCC(=O)N2 (stereo not drawn) [CARTEOLOL]
- delta logD [1]: -0.89
- bioavailability ([2]; F): ≥ 80%
- pKa [3]: 9.2
- logD [4]: -1.35

Compound: CN(C)CCC(c1ccc(Cl)cc1)c1ccccn1 (stereo not drawn) [CHLORPHENIRAMINE]
- delta logD [1]: -0.89
- logD [4]: 0.69

Compound: CCCNC(=O)NS(=O)(=O)c1ccc(Cl)cc1 [CHLORPROPAMIDE]
- delta logD [1]: 0.89
- bioavailability ([2]; F): ≥ 80%
- pKa [3]: 5
- logD [4]: 0.76

Compound: CN1C(=O)CC(=O)N(c2ccccc2)c2cc(Cl)ccc21 [CLOBAZAM]
- delta logD [1]: 0
- bioavailability [2]: ≥ 80%
- logD [4]: 0.95

Compound: CN(C)CCCN1c2ccccc2CCc2ccc(Cl)cc21 [CLOMIPRAMINE]
- logD [4]: 2.49

Compound: O=c1ccc2ccccc2o1 [COUMARIN]
- bioavailability ([2]; F): < 20%

Compound: CC1=NS(=O)(=O)c2cc(Cl)ccc2N1 [DIAZOXIDE]
- delta logD [1]: 0.03
- bioavailability ([2]; F): ≥ 80%
- pKa [3]: 8.5
- logD [4]: 1.2

Compound: CC(C)N(CCC(C(N)=O)(c1ccccc1)c1ccccn1)C(C)C (stereo not drawn) [DISOPYRAMIDE]
- delta logD [1]: -0.9
- bioavailability [2]: ≥ 80%
- pKa [3]: 10.4
- logD [4]: -1.08

Compound: O=c1[nH]c2ccccc2n1CCCN1CCC(n2c(=O)[nH]c3cc(Cl)ccc32)CC1 [DOMPERIDONE]
- logD ([5]; pH 6.5): 2.83

Compound: N#Cc1ccccc1OCC(O)CNCCNC(=O)Cc1ccc(O)cc1 (stereo not drawn) [EPANOLOL]
- delta logD [1]: -0.77
- bioavailability ([2]; F): ≤ 20%
- pKa [3]: 7.8
- logD [4]: -0.4

Compound: CCc1cccc2c3c([nH]c12)C(CC)(CC(=O)O)OCC3 (stereo not drawn) [ETODOLAC]
- bioavailability ([2]; F): ≥ 80%
- pKa [3]: 4.7

Compound: O=C(NCC1CCCCN1)c1cc(OCC(F)(F)F)ccc1OCC(F)(F)F (stereo not drawn) [FLECAINIDE]
- delta logD [1]: -0.9
- bioavailability ([2]; F): ≥ 80%
- logD [4]: 0.24

Compound: CC(C(=O)O)c1ccc(-c2ccccc2)c(F)c1 (stereo not drawn) [FLURBIPROFEN]
- delta logD [1]: 0.9
- bioavailability [2]: ≥ 80%
- pKa [3]: 4.2
- logD [4]: 1.81

Compound: Cc1ccc(C)c(OCCCC(C)(C)C(=O)O)c1 [GEMFIBROZIL]
- delta logD [1]: 0.89
- bioavailability ([2]; F): ≥ 80%
- pKa [3]: 4.8
- logD [4]: 1.47

Compound: COc1ccc(Cl)cc1C(=O)NCCc1ccc(S(=O)(=O)NC(=O)NC2CCCCC2)cc1 [GLYBURIDE]
- delta logD [1]: 0.87
- bioavailability ([2]; F): ≥ 80%
- pKa [3]: 5.3
- logD [4]: 1.85

Compound: CN1C(=O)NC(=O)C(C)(C2=CCCCC2)C1=O (stereo not drawn) [HEXOBARBITAL]
- delta logD [1]: 0.04
- bioavailability [2]: ≥ 80%
- pKa [3]: 8.3
- logD [4]: 1.48

Compound: NNc1nncc2ccccc12 [HYDRALAZINE]
- delta logD [1]: -0.61
- bioavailability ([2]; F): ≤ 20%
- logD [4]: 0.14

Compound: Nc1cc(-c2ccncc2)c[nH]c1=O [INAMRINONE]
- delta logD [1]: -0.02
- bioavailability ([2]; F): ≥ 80%
- pKa [3]: 5.2
- logD [4]: -0.72

Compound: CNC1(c2ccccc2Cl)CCCCC1=O (stereo not drawn) [KETAMINE]
- bioavailability [2]: ≤ 20%
- logD [4]: 1.14

Compound: O=C(c1ccccc1)c1ccc2n1CCC2C(=O)O (stereo not drawn) [KETOROLAC]
- delta logD [1]: 0.9
- bioavailability ([2]; F): ≥ 80%
- logD [4]: -1.34

Compound: Cc1c(OCC(F)(F)F)ccnc1C[S+]([O-])c1nc2ccccc2[nH]1 (stereo not drawn) [LANSOPRAZOLE]
- bioavailability [2]: ≥ 80%
- logD [4]: 1.73

Compound: CN(CCCN1c2ccccc2CCc2ccccc21)CC(=O)c1ccc(Cl)cc1 [LOFEPRAMINE]
- delta logD [1]: -0.32
- bioavailability ([2]; F): ≤ 20%
- pKa [3]: 6.7
- logD [4]: 4.58

Compound: O=C1Nc2ccc(Cl)cc2C(c2ccccc2Cl)=NC1O (stereo not drawn) [LORAZEPAM]
- delta logD [1]: 0
- bioavailability [2]: ≥ 80%

Compound: CC[C@H](C)C(=O)O[C@H]1C[C@@H](C)C=C2C=C[C@H](C)[C@H](CC[C@@H]3C[C@@H](O)CC(=O)O3)[C@H]21 [LOVASTATIN]
- delta logD [1]: 0
- logD [4]: 4.26

Compound: CC(C)(C)NCC(O)c1cc(Cl)c(N)c(C(F)(F)F)c1 (stereo not drawn) [MABUTEROL]
- delta logD [1]: -0.9
- bioavailability [2]: ≥ 80%
- pKa [3]: 9.7
- logD [4]: -0.03

Compound: COC(=O)Nc1nc2ccc(C(=O)c3ccccc3)cc2[nH]1 [MEBENDAZOLE]
- delta logD [1]: 0
- bioavailability ([2]; F): ≤ 20%
- logD [4]: 2.83

Compound: CCC1(c2cccc(O)c2)CCCCN(C)C1 (stereo not drawn) [MEPTAZINOL]
- delta logD [1]: -0.88
- bioavailability [2]: ≤ 20%
- pKa [3]: 8.7
- logD [4]: 0.71

Compound: Sc1ncnc2nc[nH]c12 [MERCAPTOPURINE ANHYDROUS]
- delta logD [1]: -0.72
- bioavailability ([2]; F): ≤ 20%
- pKa [3]: 7.6
- logD [4]: -1.12

Compound: COCCc1ccc(OCC(O)CNC(C)C)cc1 (stereo not drawn) [METOPROLOL]
- bioavailability ([2]; F): 49%
- logD ([5]; pH 6.5, logD): -1.32

Compound: Cc1ncc([N+](=O)[O-])n1CCO [METRONIDAZOLE]
- delta logD [1]: 0
- bioavailability ([2]; F): ≥ 80%

Compound: Cc1[nH]c(=O)c(C#N)cc1-c1ccncc1 [MILRINONE]
- delta logD [1]: -0.02
- bioavailability ([2]; F): ≥ 80%
- pKa [3]: 5.2
- logD [4]: 0.68

Compound: COc1ccc2cc(CCC(C)=O)ccc2c1 [NABUMETONE]
- delta logD [1]: 0
- bioavailability ([2]; F): ≤ 20%
- logD [4]: 2.83

Compound: Cc1ccnc2c1NC(=O)c1cccnc1N2C1CC1 [NEVIRAPINE]
- bioavailability [2]: ≥ 80%
- logD [4]: 1.92

Compound: COC(=O)C1=C(C)NC(C)=C(C(=O)OC)C1c1ccccc1[N+](=O)[O-] [NIFEDIPINE]
- bioavailability [2]: 79%

Compound: O=C(O)CCc1nc(-c2ccccc2)c(-c2ccccc2)o1 [OXAPROZIN]
- delta logD [1]: 0.84
- bioavailability ([2]; F): ≥ 80%
- pKa [3]: 5.8
- logD [4]: 3.41

Compound: O=C1OC(c2ccc(O)cc2)(c2ccc(O)cc2)c2ccccc21 [PHENOLPHTHALEIN]
- delta logD [1]: 0
- bioavailability ([2]; F): ≤ 20%
- logD [4]: 2.41

Compound: O=c1[nH]c2ccccc2n1C1CCN(CCCC(c2ccc(F)cc2)c2ccc(F)cc2)CC1 [PIMOZIDE]
- logD ([5]; pH 6.5): 5.42
- pKa [3]: 7.3

Compound: CC1CCCC(C)N1CCCC(O)(c1ccccc1)c1ccccn1 (stereo not drawn) [PIRMENOL]
- delta logD [1]: -0.9
- bioavailability ([2]; F): ≥ 80%
- pKa [3]: 10.2
- logD [4]: -0.53

Compound: C[C@]12C=CC(=O)C=C1CC[C@@H]1[C@@H]2[C@@H](O)C[C@@]2(C)[C@H]1CC[C@]2(O)C(=O)CO [PREDNISOLONE]
- delta logD [6]: 0

Compound: C[C@]12C=CC(=O)C=C1CC[C@@H]1[C@@H]2C(=O)C[C@@]2(C)[C@H]1CC[C@]2(O)C(=O)CO [PREDNISONE]
- delta logD [6]: 0
- bioavailability ([2]; F): > 80%

Compound: CCCN(CCC)S(=O)(=O)c1ccc(C(=O)O)cc1 [PROBENECID]
- delta logD [1]: 0.9
- bioavailability ([2]; F): ≥ 80%
- pKa [3]: 3.4
- logD [4]: 0.11

Compound: CC(=O)[C@H]1CC[C@H]2[C@@H]3CCC4=CC(=O)CC[C@]4(C)[C@H]3CC[C@]12C [PROGESTERONE]
- delta logD [6]: 0
- bioavailability [2]: < 20%

Compound: C1COC(NC(C2CC2)C2CC2)=N1 [RILMENIDINE]
- delta logD [1]: -0.9
- bioavailability ([2]; F): ≥ 80%
- pKa [3]: 9.3
- logD [4]: -0.94

Compound: Nc1ccc(S(=O)(=O)Nc2ncccn2)cc1 [SULFADIAZINE]
- delta logD [1]: 0.65
- bioavailability ([2]; F): ≥ 80%
- logD [4]: -0.39

Compound: CN1C(C(=O)Nc2ccccn2)=C(O)c2sccc2S1(=O)=O [TENOXICAM]
- delta logD [1]: 0.88
- bioavailability ([2]; F): ≥ 80%
- pKa [3]: 5.1
- logD [4]: 0.56

Compound: CCN(CC)C(=O)N[C@H]1C[C@@H]2c3cccc4[nH]cc(c34)C[C@H]2N(C)C1 [TERGURIDE]
- delta logD [1]: -0.32
- bioavailability [2]: ≤ 20%
- pKa [3]: 6.8
- logD [4]: 2.05

Compound: C[C@]12CC[C@H]3[C@@H](CCC4=CC(=O)CC[C@@]43C)[C@@H]1CC[C@@H]2O [TESTOSTERONE]
- delta logD [6]: 0
- bioavailability [2]: < 20%

Compound: Cc1cccc(C)c1NC(=O)C(C)N (stereo not drawn) [TOCAINIDE]
- delta logD [1]: -0.78
- bioavailability ([2]; F): ≥ 80%
- logD [4]: -0.56

Compound: CCCCNC(=O)NS(=O)(=O)c1ccc(C)cc1 [TOLBUTAMIDE]
- bioavailability ([2]; F): ≥ 80%
- pKa [3]: 5.3

Compound: Cc1ccc(C(=O)c2ccc(CC(=O)O)n2C)cc1 [TOLMETIN]
- delta logD [1]: 0.9
- bioavailability ([2]; F): ≥ 80%
- logD [4]: -0.21

Compound: COc1cc(Cc2cnc(N)nc2N)cc(OC)c1OC [TRIMETHOPRIM]
- bioavailability ([2]; F): > 80%

Compound: CCCC(CCC)C(=O)O [VALPROIC ACID]
- delta logD [1]: 0.89
- bioavailability ([2]; F): ≥ 80%
- logD [4]: 1.04

Compound: COc1ccc(C(CN(C)C)C2(O)CCCCC2)cc1 (stereo not drawn) [VENLAFAXINE]
- bioavailability [2]: ≤ 20%
- logD [4]: -2.29

Compound: O=C(NCCNCC(O)COc1ccc(O)cc1)N1CCOCC1 (stereo not drawn) [XAMOTEROL]
- delta logD [1]: -0.78
- bioavailability ([2]; F): ≤ 20%
- pKa [3]: 7.8
- logD [4]: -0.8
